“Also recorded” adds a separate entry of the source.
How the values were obtained:
HUVEC cells = assay: endothelial cell tube formation on Matrigel; assay type: cell-based, human
Experimental: Endothelial Cell Tube Formation. 96-well plates were coated with 200 uL matrigel per well and stored at 4° C. until use. HUVEC cells were harvested and cell suspensions were prepared at a density of 200,000/ml., and added at 100 ul per well to the plates. […] The plates were incubated at 37° C. under standard incubator conditions and the results were observed microcopically for tube formation.

Jurkat cells = assay: apoptosis of Jurkat cells by FACS analysis of DNA content; assay type: cell-based; settings: 50 or 300 nM, 6 hours
Experimental: FIG. 28(B): A549 cells were fixed and costained using antibodies directed against ceramide (red channel) (Bars in A/B=[…]). Arrows indicate regions of “blebbing.” The nuclear compartment was visualized using DAPI to stain DNA (blue channel). The assessments were performed two hours after treatment with 300 nM ScA. FIG. 28(C): Immunoblot analysis of Jurkat cells was performed following treatment with 100 nM ScA. 25 μg of cell lysates was probed for caspases 8, 3 and 9 and for PARP and actin (loading control) as indicated. FIG. 28(D): Caspase 8 deficient (Casp 8), FADD deficient (FADD −) or parental Jurkat cells (Jurkat) were incubated with 50 or 300 nM for 6 hours and analyzed for the presence of apoptotic cells via FACs analysis of DNA content. Results shown are the mean and standard error of triplicate determinations. […] Viability was measured by XTT assay after 72 hours, and normalized to controls not treated with drug. FIG. 28(F): similarly, the viability of neuroblastoma cultures deficient in caspase expression, or reconstituted for caspase 8 expression, was determined as for the A549 cells above. […]
FACS analysis Cell viability was analyzed by flow cytometry following propidium iodide (PI) staining, as described elsewhere (37). […] The extent of apoptosis was determined by plotting PI fluorescence versus the forward scatter parameter, using CELL QUEST™ software.

[1] = partition from liquid phase into 100 nanometer liposomes (nanosomes); assay type: physicochemical
Experimental: Preparation of Liposomes. Cholesterol:Dope:Dspc:Sca:Dspe-Mpeg (in 1:1:1:0.16:0.16 molar ratio) in chloroform were taken in 30 mL glass culture tubes, dried under a stream of nitrogen gas and vacuum-dessicated for a minimum of 6 h to remove any residual organic solvent. The dried lipid film was hydrated in sterile deionized water in a total volume of 1 mL for a minimum of 12 h. Liposomes were vortexed for 2-3 minutes to remove any adhering lipid film and sonicated in a bath sonicator (ULTRASONIK 28X™) for 2-3 minutes at room temperature to produce multilamellar vesicles (MLV). MLVs were then sonicated with a Ti-probe (using a BRANSON450™ sonifier at 100% duty cycle and 25 W output power) in an ice bath for 1-2 minutes to produce small unilamellar vesicles (SUVs) as indicated by the formation of a clear translucent solution. The solution was pressure filtered in sequence though 200 and then 100 nm nucelopore polycarbonate membranes to obtain liposome nanoparticles of 100 nm with a polydispersity factor of less than 0.1.

TJK304 cells = assay: XTT cell proliferation assay; assay type: cell-based; settings: anti-proliferative effect, FIG. 6
Experimental: (§1) Cytotoxicity Assay. Cytotoxicity of ScA was assessed using the XTT cell proliferation assay. Briefly cells were plated on 96 well plates (5,000 per well) and incubated over night at 37° C. to allow for attachment and spreading. After 24 h, ScA was added from a DMSO stock, previously frozen at −80C as added directly from serial dilutions in DMSO at concentrations ranging from 100 uM to 100 fM. After 72 h, XTT (Aldrich Chemicals) was added to a final concentration of 250 ug/well. The plates were then incubated under standard tissue culture conditions until the control wells (DMSO) reached an OD value between 1.0-1.5. as measured at 450 nm using a microtiter plate reader. The cell viability-drug dilution profiles were obtained from sigma plots, and drug concentrations which inhibited growth by 50% were calculated from multiple runs. (IC50)

[2] = system: PC3 prostate cancer cells; assay: XTT cell proliferation assay; assay type: cell-based; settings: Homo sapiens; anti-proliferative effect, FIG. 6
Experimental: as §1

[3] = system: Molt-4 T cell leukemia cells; assay: XTT cell proliferation assay; assay type: cell-based; settings: Homo sapiens, anti-proliferative effect, FIG. 6
Experimental: as §1

M21 melanoma cells = assay: XTT cell proliferation assay; assay type: cell-based; settings: Homo sapiens, anti-proliferative effect, FIG. 6
Experimental: as §1

[4] = system: pancreatic metastatic mouse carcinoma cells; assay: XTT cell proliferation assay; assay type: cell-based; settings: anti-proliferative effect, FIG. 6
Experimental: as §1

NB7 neuroblastoma cells = assay: XTT cell proliferation assay; assay type: cell-based; settings: Homo sapiens, anti-proliferative effect, FIG. 6, caspase 8 deficient
Experimental: Cell lines. Cells and cell lines were maintained in either DMEM or RPMI supplemented with 10% FCS. The caspase-deficient NB7 neuroblastoma cells have been previously described (33). C8-deficient and reconstituted jurkat cells were provided by Dr. Steve Hedrick (UCSD). Silencing of Caspase-8 gene expression in the A549 cells was performed through the use of delivering shRNA in a lentiviral format. Briefly 293 T cells were transfected with caspase-8, (Open Biosystems) or scrambled (Addgene) shRNAs in pLK0.1 lentiviral vector, together with lentiviral packaging plasmids (PMLDL, VSV-G and RSV-REV) using fugene6. The ratio of target ShRNAs and packaging plasmids was ShRNA/PMLDL/VSV-G/RSV-REV, 10/10/6/4 μg. Lentiviral supernatants from 293 T cells were harvested after 48 hours and used to infect A549 cells. Viral constructs were incubated for 24 h with A549 cell lines prior to replacing media with selective media containing puromycin (1 μg/ml). […]
Cytotoxicity Assay. Cytotoxicity of ScA was assessed using the XTT cell proliferation assay. […] The plates were then incubated under standard tissue culture conditions until the control wells (DMSO) reached an OD value between 1.0-1.5. as measured at 450 nm using a microtiter plate reader. The cell viability-drug dilution profiles were obtained from sigma plots, and drug concentrations which inhibited growth by 50% were calculated from multiple runs. […]

A-549 cells = assay: cell toxicity studies by microscopy; assay type: cell-based, human; settings: for cell state by microscopy: 24 h
Experimental: FIG. 7 illustrates cell toxicity studies using A-549 cells and somocystinamide A (ScA); FIG. 7A illustrates microscopy images of cells with DMSO (1%) as a control at 24 h; FIG. 7B-ScA (WG-144) on A-549 cells at 100 nM 24 h; FIG. 7C-ScA (WG-144) on A549 cells 1.0 uM 24 h; FIG. 7D-ScA (WG-144) on A549 cells, 10 uM, 24 h. In FIG. 7A, the negative control (no ScA) the live cells are confluent.
FIG. 28(B): A549 cells were fixed and costained using antibodies directed against ceramide (red channel) (Bars in A/B=[…]). Arrows indicate regions of “blebbing.” The nuclear compartment was visualized using DAPI to stain DNA (blue channel). The assessments were performed two hours after treatment with 300 nM ScA. FIG. 28(C): Immunoblot analysis of Jurkat cells was performed following treatment with 100 nM ScA. 25 μg of cell lysates was probed for caspases 8, 3 and 9 and for PARP and actin (loading control) as indicated. FIG. 28(D): Caspase 8 deficient (Casp 8), FADD deficient (FADD −) or parental Jurkat cells (Jurkat) were incubated with 50 or 300 nM for 6 hours and analyzed for the presence of apoptotic cells via FACs analysis of DNA content. Results shown are the mean and standard error of triplicate determinations. FIG. 28(E): A549 cells subjected to lentivirus-delivered shRNA-mediated knockdown of caspase 8, or treated with a scrambled shRNA lentivirus. Cells were then cultured in the presence of increasing doses of ScA, as indicated. Viability was measured by XTT assay after 72 hours, and normalized to controls not treated with drug. FIG. 28(F): similarly, the viability of neuroblastoma cultures deficient in caspase expression, or reconstituted for caspase 8 expression, was determined as for the A549 cells above. Both experiments are representative, with each point shown the mean±SE of triplicate wells.

Which “tube formation of HUVEC/matrigel” value (HUVEC cells; 1 μM, 100 μM and 10 nM, FIG. 3) does the source give for C=CC/C=C/N(C)C(=O)CCCCCCCC/C=C/[C@H](CSSC[C@@H](/C=C/CCCCCCCCC(=O)N(C)/C=C/CC=C)NC(C)=O)NC(C)=O [somocystinamide A, Somocystinamide A] here?
Its value is “inhibits tube formation”.

What about the “endothelial cell tube formation” value (HUVEC cells; 48 hours, FIG. 30B, listed as ScA) of the same compound?
Its value is “potently blocked endothelial cell tube formation; also recorded: endothelial cell tube formation was disrupted in dose-dependent manner”.

What about the ScA-mediated killing (Jurkat cells; Jurkat cells lacking FADD) of the same compound?
The ScA-mediated killing was “protected from ScA-mediated killing”.

What about the apoptosis (Jurkat cells; caspase 8-deficient Jurkat cells compared to wild type) of the same compound?
The apoptosis was “dramatically decreased”.

And the “interchelation of ScA within the nanosomes” value [1]?
Its value is “essentially complete within thirty minutes”.

What about the IC50 (TJK304 cells) of the same compound?
Its IC50 is 0.83 µM.

What about the IC50 [2] of the same compound?
The IC50 was 0.97 µM.

What about the IC50 [3] of the same compound?
The IC50 was 0.6 µM.

What about the IC50 (M21 melanoma cells) of the same compound?
Its IC50 is 1.28 µM.

What about the IC50 [4] of the same compound?
Its IC50 is 0.008 µM.

And the IC50 (NB7 neuroblastoma cells)?
Its IC50 is 0.81 µM.

And the “cell morphology, bright field microscopy” value (A-549 cells; 100 nM ScA, FIG. 28A)?
Its value is “induces a blebbing morphology”.

What about the “cell state by microscopy” value (A-549 cells; 100 nM) of the same compound?
The value was “transitioning to apoptosis”.

What about the “cell state by microscopy” value (A-549 cells; 1.0 uM) of the same compound?
The value was “in a state of apoptosis but no lysis”.

And the “cell state by microscopy” value (A-549 cells; 10 uM)?
Its value is “in total lysis”.

— patent US9045401B2, “Methods for treating or ameliorating a melanoma and killing melanoma cells” (THE REGENTS OF THE UNIVERSITY OF CALIFORNIA, priority 2007, dated 2015)
